According to PMC12466456, “Isolation, Characterization, Antioxidant and Anticancer Activities of Compounds from Erythrina caffra Stem Bark Extract” (Antioxidants, 2025):
Values after ≈ are worked out from the molar mass of the structure shown. Read-outs that look alike come from different tables or passages of the source.

Legend:
HEK293 cells = experiment: MTT cytotoxicity assay, HEK293; type: cell-based; settings: Homo sapiens
Procedure: (§1) Cytotoxicity was evaluated using the MTT (3-(4,5-dimethylthiazol-2-yl)-2,5-diphenyltetrazolium bromide) assay to measure cell viability after treatment with the plant extracts. This assay measures the percentage viability of a cell population by monitoring the ability of the NAD(P)H-dependent oxidoreductase enzyme system in live cells to reduce MTT to formazan, an insoluble purple form of the dye. […] The medium was replaced with fresh medium, and the extracts were added in varying concentrations (50–250 µg/mL). The plates were incubated at 37 °C in 5% CO2 for 48 h. At the end of the incubation period, the spent medium was discarded and replaced with 100 µL fresh medium containing 10 µL (5 mg/mL in PBS) MTT reagent. The cells were then incubated for an additional 4 h. The MTT/medium was subsequently removed, and 100 μL DMSO was added to solubilize the formazan dye product. Absorbance at 570 nm was assessed using a microplate reader (Vacutec, Hamburg, Germany). Cell viability was calculated as in Equation (2).(2) Cell viability (%)=At/Ac×100 where At = absorbance of test or treated cells and Ac = absorbance of control or untreated cells.

MCF-7 cells [1] = experiment: MTT cytotoxicity assay, MCF-7; type: cell-based, human; settings: for IC50: Homo sapiens
Procedure: as §1

HeLa cells [2] = experiment: MTT cytotoxicity assay, HeLa; type: cell-based, human; settings: for IC50: Homo sapiens, HeLa
Procedure: as §1

[3] = DPPH radical scavenging assay; type: biochemical; settings: crude extracts/ascorbic acid 50-250 µg/mL, 30 min, 517 nm
Procedure: The antioxidant potential of the crude extracts was evaluated by measuring their DPPH radical scavenging activity following the protocol described by Bukhari et al.. […] A control well containing 5% dimethyl sulfoxide (DMSO) and DPPH was run concurrently. The samples were incubated in the dark for 30 min at room temperature. The absorbance was read against a DMSO blank at a wavelength of 517 nm using a microplate reader.

MCF-7 cells [4] = experiment: AO/EB dual staining for apoptosis, MCF-7; type: cell-based, human; settings: 48 h; 250 µg/mL (method) or 100 µg/mL (Figure 3 legend)
Procedure: A qualitative assessment of apoptosis induction in cancer cells was conducted by the acridine orange-ethidium bromide (AO/EB) dual staining method, as described previously [13, 14]. Confluent cells (4.0 × 10^3 cells/well) were trypsinized and seeded into 48-well plates and incubated for 24 h at 37 °C in 5% CO2. Subsequently, the spent medium was replaced, and cells were incubated for a further 48 h with the extracts or standard drug (5-fluorouracil) at a concentration of 250 µg/mL. The cells were rinsed twice with cold PBS, and 15 µL of the AO/EB dye mixture (0.1 mg/mL: 0.1 mg/mL) was added, and the cells were incubated for 5 min at ambient temperature. The cells were washed with PBS to remove excess dye and then visualized under an Olympus fluorescence microscope (Wirsam Scientific and Precision Equipment Ltd., Johannesburg, South Africa). Images were captured using a CC12 fluorescence camera and Analysis Five Software (Olympus Soft Imaging Solutions, Olympus, Tokyo, Japan) at 200× magnification.

HeLa cells [5] = experiment: Muse MultiCaspase assay, HeLa; type: cell-based, human; settings: 100 µg/mL, 48 h, Figure 5a
Procedure: (§2) The multicaspase assay was performed using the Muse MultiCaspase kit, which can detect the presence of multiple caspases (caspase-1, 3, 4, 5, 6, 7, 8, and 9). The kit utilizes a derivatized VAD peptide that can detect the activity of multiple caspases and a dead cell dye that provides information on membrane integrity or cell death. Cells were seeded into 48-well plates at a density of 1.0 × 10^5 cells/well and allowed to attach over 24 h. Subsequently, 100 µg/mL of the isolated fractions were added, and the cells were incubated for 48 h. The cells were then trypsinized and reconstituted in 1 × caspase buffer. Approximately 5 μL of the Muse™ MultiCaspase working solution was added to 50 μL of cell suspension and incubated at 37 °C for 30 min. Thereafter, 150 μL of 7-AAD working solution was added, mixed thoroughly, and analyzed using the Muse™ cell analyzer (Luminex Corporation, Austin, TX, USA).

MCF-7 cells [6] = experiment: Muse MultiCaspase assay, MCF-7; type: cell-based, human; settings: 100 µg/mL, 48 h, Figure 5b
Procedure: as §2

[7] = HEK293, isolated compounds/fractions, read-out: IC50 HEK293 (isolated compounds)
[8] = MCF7, MTT, isolated compounds/fractions, read-out: IC50 MCF-7 (isolated compounds)
[9] = isolated compounds/fractions, read-out: IC50 HeLa (isolated compounds)
[10] = MTT, isolated compounds/fractions

| SMILES | IC50 (HEK293 cells; [7]) | IC50 (MCF-7 cells [1]; [8]) | IC50 (HeLa cells [2]; [9]) | IC50 MCF-7 (isolated compounds) (MCF-7 cells [1]; [10]) | caspase activation in HeLa cells (HeLa cells [5]) | caspase activation in MCF-7 cells (MCF-7 cells [6]) | further results |
| --- | --- | --- | --- | --- | --- | --- | --- |
| CCCCCCCCCCCCCCCCCCCCCO [1-Heneicosanol, 1-heneicosanol] | 372 µg/mL (≈ 1190 µM) | 1980 µg/mL (≈ 6330 µM) | 4010 µg/mL (≈ 12800 µM) |  |  |  |  |
| O=C1O[C@H]([C@@H](O)CO)C(O)=C1O [Ascorbic acid, ascorbic acid] |  |  |  |  |  |  | IC50 DPPH radical scavenging [3]: 84.37 µg/mL (≈ 479 µM) |
| O=c1[nH]cc(F)c(=O)[nH]1 [Compound 5-FU, 5-Fluorouracil, reference compound] |  |  |  |  |  |  | IC50 (HEK293 cells; 48 h, HEK293 served as normal cells, read-out: IC50 HEK293 (crude extracts)): 54.5 µg/mL (≈ 419 µM); IC50 (MCF-7 cells [1]; MCF7, 48 h, MTT, 48 h, read-out: IC50 MCF-7 (crude extracts)): 148 µg/mL (≈ 1140 µM); IC50 (HeLa cells [2]; 48 h, read-out: IC50 HeLa (crude extracts)): 510 µg/mL (≈ 3920 µM); AO/EB fluorescence / apoptosis in MCF-7 cells (MCF-7 cells [4]): red fluorescence |
| CCCCCCCCCCCCCCOC(=O)/C=C/c1ccc(OC)c(O)c1 [Tetradecyl isoferulate, tetradecyl isoferulate] | 141 µg/mL (≈ 360 µM) | 124 µg/mL (≈ 317 µM) | 170 µg/mL (≈ 435 µM) | 123.6174 µg/mL (≈ 317 µM) | pronounced caspase activation potential | pronounced caspase activation potential |  |
| CCCCCCCCCCCCCCCCCCCCCCCCCCOC(=O)/C=C/c1ccc(OC)c(O)c1 [n-Hexacosanyl isoferulate] | 316 µg/mL (≈ 566 µM) | 58.8 µg/mL (≈ 105 µM) | 147 µg/mL (≈ 262 µM) | 58.84 µg/mL (≈ 105 µM) | pronounced caspase activation potential | pronounced caspase activation potential | IC50 MCF-7 (isolated compounds) (MCF-7 cells [1]; MTT, isolated compounds/fractions, listed as n-hexacosanyl isoferulate): 58.8 µg/mL (≈ 105 µM); IC50 HeLa (isolated compounds) (HeLa cells [2]; isolated compounds/fractions): 146.63 µg/mL (≈ 262 µM) |
